Source: PubChem BioAssay AID248 (DTP/NCI, 2004)
Several values for one entry are separate records, joined by “and”; a condition that tells them apart may be missing. Equal values may be shown once. Toxic doses and inconclusive results are not listed. Cut-off read from the data, not from the text of the source: active = T/C of 150% or more; inactive = T/C below 125%.

Test system: L1210 leukemia ip in BDF1 mice, survival T/C
Assay: NCI In Vivo Anticancer Drug Screen. Data for tumor model L1210 Leukemia (intraperitoneal) in B6D2F1 (BDF1) mice
Settings: endpoint: mean survival time, higher = longer survival
In short: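 Tumor was transplanted into mice, which were then dosed with test compound or vehicle alone. Survival was recorded for each group, and the treated figure was expressed relative to the control figure.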

[1] = dose: 50.0 mg/kg/injection, schedule: Q01DX009 (ip), vehicle: saline with Tween-80
[2] = dose: 100.0 mg/kg/injection, schedule: Q01DX009 (ip), vehicle: saline with Tween-80
[3] = dose: 200.0 mg/kg/injection, schedule: Q01DX009 (ip), vehicle: saline with Tween-80
[4] = dose: 400.0 mg/kg/injection, schedule: Q01DX009 (ip), vehicle: saline with Tween-80
[5] = dose: 100.0 mg/kg/injection, schedule: Q04DX003 (ip), vehicle: Klucel (hydroxypropylcellulose) (HPC)
[6] = dose: 200.0 mg/kg/injection, schedule: Q04DX003 (ip), vehicle: Klucel (hydroxypropylcellulose) (HPC)
[7] = dose: 400.0 mg/kg/injection, schedule: Q04DX003 (ip), vehicle: Klucel (hydroxypropylcellulose) (HPC)
[8] = dose: 100.0 mg/kg/injection, schedule: Q01DX001 (ip), vehicle: carboxymethylcellulose (CMC)
[9] = dose: 200.0 mg/kg/injection, schedule: Q01DX001 (ip), vehicle: carboxymethylcellulose (CMC)
[10] = dose: 400.0 mg/kg/injection, schedule: Q01DX001 (ip), vehicle: carboxymethylcellulose (CMC)
[11] = dose: 25.0 mg/kg/injection, schedule: Q01DX009 (ip), vehicle: Klucel (hydroxypropylcellulose) (HPC)
[12] = dose: 50.0 mg/kg/injection, schedule: Q01DX009 (ip), vehicle: Klucel (hydroxypropylcellulose) (HPC)
[13] = dose: 100.0 mg/kg/injection, schedule: Q01DX009 (ip), vehicle: Klucel (hydroxypropylcellulose) (HPC)
[14] = dose: 200.0 mg/kg/injection, schedule: Q01DX009 (ip), vehicle: Klucel (hydroxypropylcellulose) (HPC)
[15] = dose: 400.0 mg/kg/injection, schedule: Q01DX009 (ip), vehicle: Klucel (hydroxypropylcellulose) (HPC)
[16] = dose: 100.0 mg/kg/injection, schedule: Q01DX009 (ip), vehicle: saline
[17] = dose: 100.0 mg/kg/injection, schedule: Q04DX003 (ip), vehicle: saline
[18] = dose: 200.0 mg/kg/injection, schedule: Q01DX009 (ip), vehicle: saline
[19] = dose: 400.0 mg/kg/injection, schedule: Q01DX009 (ip), vehicle: saline
[20] = dose: 50.0 mg/kg/injection, schedule: Q04DX003 (ip), vehicle: saline
[21] = dose: 50.0 mg/kg/injection, schedule: Q01DX001 (ip), vehicle: saline
[22] = dose: 100.0 mg/kg/injection, schedule: Q01DX001 (ip), vehicle: saline
[23] = dose: 200.0 mg/kg/injection, schedule: Q01DX001 (ip), vehicle: saline
[24] = dose: 400.0 mg/kg/injection, schedule: Q01DX001 (ip), vehicle: saline

Measured: T/C

O=C1C2CCC(C2)C1C(O)(C(F)(F)Cl)C(F)(F)Cl (configuration not stated)
inactive: [1] 92 % of control | [2] 90 % of control | [3] 90 % of control | [4] 92 % of control

CC(=O)C1=C(c2ccccc2)NC(=O)NC1c1ccco1 (configuration not stated)
inactive: dose: 100.0 mg/kg/injection, schedule: Q04DX003 (ip), vehicle: saline with Tween-80 94 % of control | dose: 200.0 mg/kg/injection, schedule: Q04DX003 (ip), vehicle: saline with Tween-80 90 % of control | dose: 400.0 mg/kg/injection, schedule: Q04DX003 (ip), vehicle: saline with Tween-80 92 % of control

CCc1[nH]c(=S)nc(-c2ccccc2)c1-c1ccc([N+](=O)[O-])cc1O
inactive: [5] 95 % of control | [6] 100 % of control | [7] 95 % of control

CCOC(=O)CCCN(c1ccc(OC)c(OC)c1)S(=O)(=O)c1ccc(C)cc1
inactive: [8] 97 % of control | [9] 105 % of control | [10] 94 % of control

CCN(CC)CCOC(=O)C1CC1(c1ccccc1)c1ccccc1 (configuration not stated)
inactive: [11] 98 % of control | [12] 87 % of control | [13] 95 % of control and 98 % of control

O=C(COc1ccc(Cl)cc1Cl)OCCOCCOCCOCCOCCOCCOCCOCCOCCOCCOCCOCCOCCO
inactive: [13] 101 % of control | [14] 101 % of control | [15] 98 % of control

CC1NC1C (configuration not stated)
inactive: dose: 45.0 mg/kg/injection, schedule: Q04DX003 (ip), vehicle: saline 102 % of control | dose: 90.0 mg/kg/injection, schedule: Q04DX003 (ip), vehicle: saline 98 % of control | [16] 103 % of control | [17] 108 % of control | dose: 180.0 mg/kg/injection, schedule: Q04DX003 (ip), vehicle: saline 107 % of control | [18] 108 % of control | dose: 200.0 mg/kg/injection, schedule: Q04DX003 (ip), vehicle: saline 114 % of control | [19] 103 % of control | dose: 400.0 mg/kg/injection, schedule: Q04DX003 (ip), vehicle: saline 119 % of control

Cc1cc(C)cc(OC(=O)/C=C/C(=O)Oc2cc(C)cc(C)c2)c1
inactive: [2] 105 % of control | [3] 100 % of control | [4] 102 % of control

CCOC(=O)/C=C/C(=O)O.[Co]
inactive: dose: 12.5 mg/kg/injection, schedule: Q04DX003 (ip), vehicle: saline 114 % of control | dose: 25.0 mg/kg/injection, schedule: Q04DX003 (ip), vehicle: saline 118 % of control | [20] 116 % of control | [17] 118 % of control and 121 % of control

Cc1ccc(N=Nc2ccc(C)cc2NC(=O)c2ccc(Cl)cc2Cl)cc1
inactive: [13] 88 % of control | [14] 97 % of control | [15] 89 % of control

CN1CCC2=C(C1)C(c1ccccc1)c1ccccc12 (configuration not stated)
inactive: dose: 25.0 mg/kg/injection, schedule: Q01DX009 (ip), vehicle: saline 90 % of control | dose: 50.0 mg/kg/injection, schedule: Q01DX009 (ip), vehicle: saline 95 % of control | [20] 106 % of control | [16] 102 % of control | [17] 106 % of control

CCCCCCCCCCCCCC(C)NCc1ccccc1 (configuration not stated)
inactive: [21] 97 % of control | [22] 88 % of control

COc1ccc(C=O)cc1OCCCCCOc1cc(C=O)ccc1OC
inactive: [12] 86 % of control | [13] 101 % of control | [14] 90 % of control

COc1ccc2nc(NCN3C(=O)c4ccccc4C3=O)sc2c1
inactive: [2] 96 % of control | dose: 100.0 mg/kg/injection, schedule: Q04DX003 (ip), vehicle: acetone 88 % of control | [3] 95 % of control | dose: 200.0 mg/kg/injection, schedule: Q04DX003 (ip), vehicle: acetone 88 % of control | [4] 93 % of control | dose: 400.0 mg/kg/injection, schedule: Q04DX003 (ip), vehicle: acetone 90 % of control

c1cnc2[nH]cnc2n1
inactive: [16] 86 % of control | [5] 100 % of control | [18] 109 % of control | [6] 100 % of control | [19] 112 % of control | [7] 105 % of control

CCCNC(=O)NO
inactive: [8] 103 % of control | dose: 150.0 mg/kg/injection, schedule: Q01DX009 (ip), vehicle: other 105 % of control | [9] 100 % of control | [10] 105 % of control

Clc1ccc(OCc2sc3ccc(Br)cc3c2CN2CCc3ccccc3C2)cc1
inactive: dose: 75.0 mg/kg/injection, schedule: Q01DX009 (ip), vehicle: Klucel (hydroxypropylcellulose) (HPC) 101 % of control | [5] 94 % of control | dose: 150.0 mg/kg/injection, schedule: Q01DX009 (ip), vehicle: Klucel (hydroxypropylcellulose) (HPC) 94 % of control | [6] 98 % of control | dose: 300.0 mg/kg/injection, schedule: Q01DX009 (ip), vehicle: Klucel (hydroxypropylcellulose) (HPC) 97 % of control | [7] 94 % of control

CCc1ccccc1NC(=O)Nc1ccc(S(N)(=O)=O)cc1
inactive: [13] 98 % of control | [14] 97 % of control | [15] 103 % of control

Cc1n[nH]c(=S)nc1C
inactive: [21] 96 % of control | dose: 50.0 mg/kg/injection, schedule: Q04DX003 (ip), vehicle: Klucel (hydroxypropylcellulose) (HPC) 96 % of control | [22] 102 % of control | [5] 96 % of control | [23] 93 % of control | [6] 91 % of control

Cn1c(=O)c2[nH]c(-c3ccc([N+](=O)[O-])cc3)nc2n(C)c1=O
inactive: [21] 98 % of control | [22] 93 % of control | [23] 96 % of control | [24] 93 % of control

C/C=C/CS(=O)(=O)Cc1ccccc1
inactive: dose: 100.0 mg/kg/injection, schedule: Q01DX001 (ip), vehicle: saline with Tween-80 103 % of control | dose: 200.0 mg/kg/injection, schedule: Q01DX001 (ip), vehicle: saline with Tween-80 95 % of control | dose: 400.0 mg/kg/injection, schedule: Q01DX001 (ip), vehicle: saline with Tween-80 103 % of control

Cc1ccc(Cl)cc1NC(=O)Oc1ccc(C(C)(C)C)cc1Br
inactive: [13] 91 % of control | [14] 100 % of control | [15] 108 % of control

NC(Cc1ccc(O)cc1)C(=O)N/N=C/c1ccc(N(CCCl)CCCl)cc1 (configuration not stated)
inactive: [11] 101 % of control | [12] 113 % of control | [13] 106 % of control | [5] 107 % of control | [6] 102 % of control

C(=N\Nc1nc2ccccc2o1)/c1ccncc1
inactive: [13] 95 % of control | [14] 104 % of control | [15] 104 % of control

CCCCNC(=S)NN=C(N)N
inactive: dose: 100.0 mg/kg/injection, schedule: Q04DX002 (ip), vehicle: saline with Tween-80 96 % of control | dose: 200.0 mg/kg/injection, schedule: Q04DX002 (ip), vehicle: saline with Tween-80 100 % of control | dose: 400.0 mg/kg/injection, schedule: Q04DX002 (ip), vehicle: saline with Tween-80 92 % of control

O=C(Nc1cccc2cccnc12)C(F)(F)F
inactive: [21] 91 % of control | [22] 104 % of control | [23] 91 % of control | [24] 93 % of control

Cc1c([N+](=O)[O-])c(C)c([N+](=O)[O-])c(C(C)(C)C)c1[N+](=O)[O-]
inactive: [13] 93 % of control | [5] 92 % of control | [14] 94 % of control | [6] 100 % of control | [15] 96 % of control | [7] 94 % of control

O=[N+]([O-])CC(OCCCO)C(Cl)(Cl)Cl (configuration not stated)
inactive: dose: 6.25 mg/kg/injection, schedule: Q01DX009 (ip), vehicle: saline with Tween-80 92 % of control | dose: 12.5 mg/kg/injection, schedule: Q01DX009 (ip), vehicle: saline with Tween-80 101 % of control | dose: 25.0 mg/kg/injection, schedule: Q01DX009 (ip), vehicle: saline with Tween-80 104 % of control | [1] 92 % of control and 91 % of control

O=C(Nc1ccc(F)cc1)Nc1ccc(I)cc1
inactive: [13] 100 % of control and 92 % of control | [14] 100 % of control | [15] 96 % of control and 90 % of control
